# Measured values taken from patent US10166210B2, “Methods of subtyping CRC and their association with treatment of colon cancer patients with oxaliplatin” (NSABP Foundation, Inc., priority 2014, dated 2019).
# Key:
# [1] = test system: stage II and III colon adenocarcinoma; details: oxaliplatin added to FU and LV; trials MOSAIC and C-07; cited from earlier work
# [2] = test system: stage II and III colon cancer, CRC subtypes; test: C-07 discovery cohort: oxaliplatin benefit by CRC intrinsic subtype (CRC-SSP-72), Kaplan Meier analysis; assay type: in vivo, human
# Excerpt: FIG. 3 Kaplan Meier Plots of each CRC subtype using our gene signature by CRC-SSP-72 according to treatment (FULV versus FOLFOX) using recurrence free survival (RFS) as the end point. Among identified CRC subtypes, only Enterocyte received significant benefit (HR=0.315, p=0.005).
# FIG. 4 Kaplan Meier Plots of the Enterocyte subtype and of all of the other subtypes (Goblet-like, Inflammatory, Stem-like and TA) combined into one group (Others) There is significant treatment-group interaction (p=0.012)
# We have profiled 296 genes in 1840 patients using the nCounter Assay system (Nanostring Technologies, Seattle Wash.). Clinical data and nCounter data for the discovery dataset were merged and anonymized by the honest broker at the University of Pittsburgh as defined by standard operations under IRB approval of NSABP Biospecimen Bank and Biostatistics Center. We have developed a predictive algorithm to classify tumors into oxaliplatin benefit or no benefit group using discovery cohort of 848 patients without access to the data from the remaining 992 patients (validation cohort).
# For C07, 2409 patients were enrolled in C-07 and all cases with tumor blocks, proper consent, clinical follow-up information and sufficient RNA yields were used in this study (N=1840). These cases were split into a discovery (N=848) and a validation (N=992) cohort (FIG. 1). […]
# [3] = test system: early-stage colon cancer; details: recent MOSAIC analysis; all stage II or high risk stage II patients; cited from earlier work
smiles,measurement,setting,value
O=C1[O][Pt]2([NH][C@@H]3CCCC[C@H]3[NH]2)[O]C1=O [oxaliplatin],disease free survival (DFS),[1],significantly improved disease free survival
same,recurrence free survival (RFS) HR,"[2]; Enterocyte subtype, FULV versus oxaliplatin arm, p=0.005",0.315
same,benefit from oxaliplatin by subtype,"[2]; enterocyte subtype versus TA, goblet, inflammatory and stem-like, treatment-group interaction p=0.012",only the enterocyte subtype received benefit
same,benefit in stage II patients,[3],no statistically significant benefit
